The target in the experiment is T1, estrogen receptor alpha (ERα) ligand binding domain (Homo sapiens, UniProt P03372, C381S/C417S/C530S/Y537S).
T1 construct: gene ESR1
T1 sequence (P03372 300-550 C381S/C417S/C530S/Y537S): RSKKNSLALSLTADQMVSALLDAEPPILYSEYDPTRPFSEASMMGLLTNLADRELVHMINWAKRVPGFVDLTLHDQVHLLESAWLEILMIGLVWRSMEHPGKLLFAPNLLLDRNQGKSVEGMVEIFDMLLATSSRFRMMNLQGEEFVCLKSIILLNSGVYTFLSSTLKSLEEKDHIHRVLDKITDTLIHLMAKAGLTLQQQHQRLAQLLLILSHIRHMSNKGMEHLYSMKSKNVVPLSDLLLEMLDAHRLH
Put plainly: X-ray co-crystal structure, […] Å.

Take `O=C(c1ccccc1)N1C(c2ccc(OCC3CCN(CCCF)C3)cc2)c2ccc(O)cc2CC12CC2` (stereo not shown) [T6I-29]: the “X-ray co-crystal structure, 2.20 Å” value is “we solved an x-ray co-crystal structure of T6I-29 in complex with Y537S ERα LBD”.

The values above are taken from PMC11230492, “Targeting Unique Ligand Binding Domain Structural Features Downregulates DKK1 in Y537S ESR1 Mutant Breast Cancer Cells” (Research Square, 2024).
